Source: patent EP4603105A1, “PHARMACEUTICAL COMPOSITION CONTAINING CYCLIC COMPOUND HAVING SELECTIVE KRAS INHIBITORY EFFECT AGAINST HRAS AND NRAS” (CHUGAI SEIYAKU KABUSHIKI KAISHA, priority 2022, dated 2024)
Where two headings read alike, the source gives them in different places. Where a SMILES comes first, the peptide text is derived from it. Bridges are numbered along the chain shown (N, C = ends). [ ]: non-standard residue; d: D form. The star is where a group is joined. hPhe(3-Cl-4-CF3) = N[C@@H](CCc1ccc(C(F)(F)F)c(Cl)c1)C(=O)O; NPrPhe(4-CF3) = CCCN[C@@H](Cc1ccc(C(F)(F)F)cc1)C(=O)O; NMePhe(4-Me) = CN[C@@H](Cc1ccc(C)cc1)C(=O)O; Morpholine(3S-CO) = O=C(O)[C@@H]1COCCN1; NMeGly(cPent) = CN[C@H](C(=O)O)C1CCCC1; Pro(4,4-F2) = O=C(O)[C@@H]1CC(F)(F)CN1; NMeD = CN[C@@H](CC(=O)O)C(=O)O; NMeL = CN[C@@H](CC(C)C)C(=O)O; NMeS = CN[C@@H](CO)C(=O)O; Morpholide = C1CN(*)CCO1; Ac5c = NC1(C(=O)O)CCCC1; Aze = O=C(O)[C@@H]1CCN1; Sar = CNCC(=O)O

Legend:
HRAS wild-type protein = HRAS wild-type protein (Homo sapiens, UniProt P01112); test: Binding to HRAS by surface plasmon resonance (SPR), KD and KD ratio to KRAS
How it was run: (§1)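 Each cycle, GDP-bound biotin-Avi RAS was captured (~100–300 RU), compound concentrations were injected low to high for 75 s each at 100 µL/min, then the chip was regenerated. Buffer: HBS pH 7.4, 10 mM MgCl2, 10 µM GDP, 1 mM DTT, 4% DMSO; 30°C. KD from a 1:1 binding model.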

[1] = target: GDP-bound NRAS wild-type protein (Homo sapiens, UniProt P01111); test: Binding to NRAS by surface plasmon resonance (SPR), KD and KD ratio to KRAS
How it was run: as §1

[2] = tested on: human lung cancer strain NCI-H441; assay type: cell-based
How it was run: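 Signal came from […] measured per well once the reagent was added. Beforehand, cells were cultured at 37°C and 5% carbon dioxide on a compound series serially diluted in dimethyl sulfoxide.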

[3] = ratio of KD for HRAS wild-type protein to KD for KRAS
[4] = ratio of KD for GDP-bound NRAS wild-type protein to KD for KRAS

Sequence of GDP-bound NRAS wild-type protein (P01111 whole entry): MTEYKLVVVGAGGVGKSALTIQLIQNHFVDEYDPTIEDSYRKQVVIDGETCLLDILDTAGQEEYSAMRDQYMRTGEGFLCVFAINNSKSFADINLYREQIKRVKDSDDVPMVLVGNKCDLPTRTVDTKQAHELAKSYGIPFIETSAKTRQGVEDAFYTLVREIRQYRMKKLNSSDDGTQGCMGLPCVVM
Sequence of HRAS wild-type protein (P01112 whole entry): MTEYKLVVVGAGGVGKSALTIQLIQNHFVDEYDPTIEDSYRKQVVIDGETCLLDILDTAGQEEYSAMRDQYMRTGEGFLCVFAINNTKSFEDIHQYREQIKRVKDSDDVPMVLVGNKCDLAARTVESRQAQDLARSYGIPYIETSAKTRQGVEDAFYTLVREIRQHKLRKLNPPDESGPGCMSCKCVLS

Row | IC50 [2] | IC50 ([2]; NCI-H441 cells, 4 days, CellTiter-Glo, read-out: NCl-H441 IC50) | SMILES | HRAS /KRAS (HRAS wild-type protein; [3]) | NRAS /KRAS [1, 4] | HRAS /KRAS (HRAS wild-type protein; ratio of the KD value with respect to HRAS wild-type protein to the KD value with respect to KRAS) | NRAS /KRAS ([1]; ratio of the KD value with respect to GDP-bound NRAS wild-type protein to the KD value with respect to KRAS) | HRAS /KRAS (HRAS wild-type protein; ratio of KD with respect to HRAS wild-type protein to KD with respect to KRAS) | NRAS /KRAS ([1]; ratio of KD with respect to GDP-bound NRAS wild-type protein to KD with respect to KRAS)
1 | 20.9 nM |  | CCC[C@H]1C(=O)N[C@@H]([C@@H](C)CC)C(=O)N(C)CC(=O)N(C)[C@H]2C/C=C\CCN(C2=O)[C@@H](Cc2ccc(C(F)(F)F)cc2)C(=O)N(C)CC(=O)N[C@@H](CCc2ccc3sc(C)c(C)c3c2)C(=O)N2C[C@H](OCC)C[C@H]2C(=O)NC2(CC(C)(C)C2)C(=O)N(C)[C@@H](C2CCCC2)C(=O)N(C)[C@H](C(=O)N(C)C)CC(=O)N1C [PP2889] | A (a compound having 10 or more and less than 20 is denoted as A) | A (a compound having 10 or more and less than 20 is denoted as A) |  |  |  | 
2 | 13.3 nM |  | CCCN1C(=O)CN(C)C(=O)CN(C)C(=O)[C@H]([C@@H](C)CC)NC(=O)[C@H](CC(C)C)N(C)C(=O)C[C@@H](C(=O)N2CCOCC2)N(C)C(=O)[C@H](C2CCCC2)N(C)C(=O)C2(CCCC2)NC(=O)[C@@H]2COCCN2C(=O)[C@H](CCc2ccc(C(F)(F)F)c(Cl)c2)NC(=O)CN(C)C(=O)[C@@H]1Cc1ccc(C(F)(F)F)cc1 [PP0265] ([NMeL]I[Sar][Sar][NPrPhe(4-CF3)][Sar][hPhe(3-Cl-4-CF3)][Morpholine(3S-CO)][Ac5c][NMeGly(cPent)][NMeD]-Morpholide; lactam N-11) | C (A compound having a KD ratio of 0.1 or more and less than 3 is denoted as C) | B (a compound having 3 or more and less than 10 is denoted as B) |  |  |  | 
3 | 430 nM |  | CC[C@H](C)[C@@H]1NC(=O)[C@H](CC(C)C)N(C)C(=O)C[C@@H](C(=O)N2CCOCC2)N(C)C(=O)[C@H](C2CCCC2)N(C)C(=O)C2(CCCC2)NC(=O)[C@@H]2CCCN2C(=O)[C@H](CCc2ccc(C(F)(F)F)c(Cl)c2)NC(=O)CN(C)C(=O)[C@H](Cc2ccc(C)cc2)N(C)C(=O)[C@H](CO)N(C)C(=O)CN(C)C1=O [PP0037] ([NMeL]I[Sar][NMeS][NMePhe(4-Me)][Sar][hPhe(3-Cl-4-CF3)]P[Ac5c][NMeGly(cPent)][NMeD]-Morpholide; lactam N-11) | C (A compound having a KD ratio of 0.1 or more and less than 3 is denoted as C) | C (A compound having a KD ratio of 0.1 or more and less than 3 is denoted as C) |  |  |  | 
4 | 39 nM |  | CCCN1C(=O)[C@@H]2CCN2C(=O)CN(C)C(=O)[C@H]([C@@H](C)CC)NC(=O)[C@H](CC(C)C)N(C)C(=O)C[C@@H](C(=O)N2CCOCC2)NC(=O)[C@H](C2CCCC2)N(C)C(=O)C2(CCCC2)NC(=O)[C@@H]2CC(F)(F)CN2C(=O)[C@H](CCc2ccc(C(F)(F)F)c(Cl)c2)NC(=O)CN(C)C(=O)[C@@H]1Cc1ccc(C(F)(F)F)cc1 [PP0351] ([NMeL]I[Sar][Aze][NPrPhe(4-CF3)][Sar][hPhe(3-Cl-4-CF3)][Pro(4,4-F2)][Ac5c][NMeGly(cPent)]D-Morpholide; lactam N-11) | B (a compound having 3 or more and less than 10 is denoted as B) | C (A compound having a KD ratio of 0.1 or more and less than 3 is denoted as C) |  |  |  | 
5 | 6.6 nM |  | CCCN(C)C(=O)[C@@H]1CC(=O)N(C)[C@@H](CC(F)F)C(=O)N[C@@H]([C@@H](C)CC)C(=O)N(C)CC(=O)N(C)[C@H]2C/C=C\CCN(C2=O)[C@@H](Cc2ccc(C(F)(F)F)cc2)C(=O)N(C)CC(=O)N[C@@H](CCc2ccc(C(F)(F)F)c(OC)c2)C(=O)N2C[C@H](OCC)C[C@H]2C(=O)NC2(CC(C)(C)C2)C(=O)N(C)[C@@H](C2CCCC2)C(=O)N1C [PP2010] |  |  | B (a compound having 3 or more and less than 10 is denoted as B) | A (a compound having 10 or more and less than 20 is denoted as A) |  | 
6 | 11.5 nM |  | CCO[C@@H]1C[C@H]2C(=O)NC3(CCC3)C(=O)N(C)[C@@H](C3CCCC3)C(=O)N(C)[C@H](C(=O)N(C)CCOC)CC(=O)N(C)[C@@H](CC3CC3)C(=O)N[C@@H]([C@@H](C)CC)C(=O)N(C)CC(=O)N(C)[C@H]3C/C=C\CCN(C3=O)[C@@H](Cc3ccc(C(F)(F)F)cc3)C(=O)N(C)CC(=O)N[C@@H](CCc3cc(F)c(C(F)(F)F)c(F)c3)C(=O)N2C1 [PP1318] |  |  |  |  | A (a compound having 10 or more and less than 20 is denoted as A) | A (a compound having 10 or more and less than 20 is denoted as A)
7 |  | 6.2 nM | CCO[C@@H]1C[C@H]2C(=O)NC3(CC(C)(C)C3)C(=O)N(C)[C@@H](C3CCCC3)C(=O)N(C)[C@H](C(=O)N(C)C)CC(=O)N(C)[C@@H](CC(C)C)C(=O)N[C@@H]([C@@H](C)CC)C(=O)N(C)CC(=O)N(C)[C@H]3C/C=C\CCN(C3=O)[C@@H](Cc3ccc(C)c(F)c3)C(=O)N(C)CC(=O)N[C@@H](CCc3ccc(C(F)(F)F)c(OC)c3)C(=O)N2C1 [PP2689] | B (a compound having 3 or more and less than 10 is denoted as B) | A (a compound having 10 or more and less than 20 is denoted as A) |  |  |  | 
